{
  "source": "patent US20220119383A1",
  "about": "(Gilead Sciences, Inc., priority 2018, published 2022)",
  "data": [
    {"biological_target": "T1, α4β7 integrin (Homo sapiens, UniProt P13612+P26010)", "T1 construct": "monitoring the capture of α4β7 integrin expressing cells; endogenous in cells; host or cells: RPMI8866 cells", "T1 sequence (P13612 34-1032)": "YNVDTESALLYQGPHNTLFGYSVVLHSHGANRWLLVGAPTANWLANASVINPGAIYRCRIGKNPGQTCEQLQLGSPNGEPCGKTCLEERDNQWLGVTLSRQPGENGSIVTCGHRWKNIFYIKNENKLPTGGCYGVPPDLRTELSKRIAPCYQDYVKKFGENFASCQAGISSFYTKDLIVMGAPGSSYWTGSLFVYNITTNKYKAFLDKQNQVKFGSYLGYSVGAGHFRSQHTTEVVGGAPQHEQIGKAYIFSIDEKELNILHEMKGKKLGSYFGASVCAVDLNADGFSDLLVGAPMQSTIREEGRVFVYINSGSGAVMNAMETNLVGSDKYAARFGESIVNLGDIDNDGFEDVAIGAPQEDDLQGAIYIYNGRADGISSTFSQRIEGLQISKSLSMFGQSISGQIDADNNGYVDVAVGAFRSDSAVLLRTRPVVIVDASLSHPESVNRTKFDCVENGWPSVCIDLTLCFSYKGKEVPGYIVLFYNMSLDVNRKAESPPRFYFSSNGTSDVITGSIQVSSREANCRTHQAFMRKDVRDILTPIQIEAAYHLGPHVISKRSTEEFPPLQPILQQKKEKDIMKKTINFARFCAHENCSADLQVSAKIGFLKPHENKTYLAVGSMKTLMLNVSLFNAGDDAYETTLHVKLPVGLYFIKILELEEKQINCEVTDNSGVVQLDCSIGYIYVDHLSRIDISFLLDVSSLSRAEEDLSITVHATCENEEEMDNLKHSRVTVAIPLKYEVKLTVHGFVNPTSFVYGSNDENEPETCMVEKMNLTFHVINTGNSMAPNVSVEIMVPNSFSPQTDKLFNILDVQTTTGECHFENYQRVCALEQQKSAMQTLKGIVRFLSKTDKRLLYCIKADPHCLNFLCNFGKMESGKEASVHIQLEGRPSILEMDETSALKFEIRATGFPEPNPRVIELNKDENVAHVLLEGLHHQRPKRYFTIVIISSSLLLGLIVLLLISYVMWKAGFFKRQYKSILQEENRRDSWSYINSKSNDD", "T1 sequence (P26010 20-798)": "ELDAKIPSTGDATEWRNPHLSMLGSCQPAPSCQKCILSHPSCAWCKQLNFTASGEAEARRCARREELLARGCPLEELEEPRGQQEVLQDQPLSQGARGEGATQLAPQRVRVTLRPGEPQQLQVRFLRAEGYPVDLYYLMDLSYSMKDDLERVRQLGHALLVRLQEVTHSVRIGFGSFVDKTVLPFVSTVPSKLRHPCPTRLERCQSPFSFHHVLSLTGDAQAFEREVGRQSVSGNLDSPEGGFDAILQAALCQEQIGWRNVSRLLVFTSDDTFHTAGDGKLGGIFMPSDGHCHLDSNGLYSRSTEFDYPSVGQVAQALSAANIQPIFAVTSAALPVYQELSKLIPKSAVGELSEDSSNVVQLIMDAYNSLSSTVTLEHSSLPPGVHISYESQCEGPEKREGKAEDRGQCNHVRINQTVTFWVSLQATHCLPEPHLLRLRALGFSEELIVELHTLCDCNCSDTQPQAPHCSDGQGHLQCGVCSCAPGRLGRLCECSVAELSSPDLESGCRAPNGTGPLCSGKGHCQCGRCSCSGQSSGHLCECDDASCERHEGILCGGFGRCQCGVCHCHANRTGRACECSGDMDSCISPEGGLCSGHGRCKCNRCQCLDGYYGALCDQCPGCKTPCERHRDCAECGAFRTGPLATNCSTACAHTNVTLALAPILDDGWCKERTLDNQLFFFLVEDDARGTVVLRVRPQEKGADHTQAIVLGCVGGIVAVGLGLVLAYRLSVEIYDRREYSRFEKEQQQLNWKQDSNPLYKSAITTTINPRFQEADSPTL", "experiment": "α4β7 integrin cell capture assay", "type": "cell-based", "conditions": "Table 1; capture of RPM18866 cells on MadCAM-1 extracellular domain-coated plate", "description": "(§1) The potency of inhibitors in preventing α4β7 integrin interaction with MadCAM-1 was measured by monitoring the capture of α4β7 integrin expressing cells on a recombinant MadCAM-1 extracellular domain-coated plate. […] The plates were then washed with PBS and blocked with 3% BSA for 2 hours before being washed again.\n(§2) RPM18866 cells were spun down and re-suspended in assay medium (DMEM+0.5% FBS+0.5 mM MnCl2) at a density of 0.5×10^6 cells/mL. […] The plates were incubated at 37° C. for 1 hour. 50 μL of cells were transferred to the blocked, MadCAM-1-coated plates and incubated for 30 minutes at 37° C. […] The plates were incubated for 90 minutes at room temperature. The plates were then washed 3 times with 70 μL of PBS per well and imaged on a Cellomics ArrayScan instrument. The cells that were bound to the plate were counted and plotted against the compound concentration to determine the EC50 of the test compounds.", "units": {"EC50": "nM"}, "values": [
      {"molecule": "O=C(N[C@@H](Cc1ccc(-c2ncc3ccccc3c2Cl)c2ncccc12)C(=O)O)c1c(F)cccc1F", "note": "[Example 66, (S)-3-(8-(4-chloroisoquinolin-3-yl)quinolin-5-yl)-2-(2,6-difluorobenzamido)propanoic acid]", "EC50": 18.9},
      {"molecule": "2,6-difluoro-4-(3-(trifluoromethyl)morpholino)benzoic acid [Example 81]", "EC50": 6},
      {"molecule": "N#Cc1ccc(-c2ccc(C[C@H](NC(=O)c3c(F)cc(N4CCOC[C@@H]4C(F)(F)F)cc3F)C(=O)O)c3cccnc23)c(Cl)c1", "note": "(single isomer, unassigned) [Example 82]", "EC50": 4.7},
      {"molecule": "COc1cc(F)cc(C(F)(F)F)c1-c1ccc(C[C@H](NC(=O)c2c(F)cccc2F)C(=O)O)c2cccnc12", "note": "(single isomer, unassigned) [Example 7]", "EC50": 1.9},
      {"molecule": "N#Cc1ccc(-c2ccc(C[C@H](NC(=O)c3c(F)cc(N4CCOC[C@H]4C(F)(F)F)cc3F)C(=O)O)c3cccnc23)c(Cl)c1", "note": "(single isomer, unassigned) [Example 83]", "EC50": 32.9},
      {"molecule": "N#Cc1ccc(-c2ccc(C[C@H](NC(=O)c3c(F)cc(NC(C4CC4)C(F)(F)F)cc3F)C(=O)O)c3cccnc23)c(Cl)c1", "note": "(some centres unmarked) [Example 89]", "EC50": 14.4},
      {"molecule": "CC[C@@H](Nc1cc(F)c(C(=O)N[C@@H](Cc2ccc(-c3c(C(F)(F)F)c4cc(F)ccc4n(C)c3=O)c3ncccc23)C(=O)O)c(F)c1)C(F)(F)F", "note": "[Example 124]", "EC50": 0.6},
      {"molecule": "O=C(N[C@@H](Cc1ccc(-c2cccc3c2OCCO3)c2ncccc12)C(=O)O)c1c(F)cc(NS(=O)(=O)c2ccc(-c3ccnc(F)c3)cc2)cc1F", "note": "[Example 51]", "EC50": 2.9},
      {"molecule": "COc1cc(F)cc(C(F)(F)F)c1-c1ccc(C[C@H](NC(=O)c2c(F)cccc2F)C(=O)O)c2cccnc12", "note": "(single isomer, unassigned) [Example 8]", "EC50": 41.4},
      {"molecule": "(S)-3-(8-(2-chloro-4-cyanophenyl)quinolin-5-yl)-2-(2,6-difluoro-4-((R)-3-(trifluoromethyl)morpholino)benzamido)propanoic acid [Example 148]", "EC50": 60.6},
      {"molecule": "CC[C@@H](Nc1cc(F)c(C(=O)N[C@@H](Cc2ccc(-c3cn(C)c(=O)n(C)c3=O)c3ncccc23)C(=O)O)c(F)c1)C(F)(F)F", "note": "[Example 113, (S)-2-(2,6-difluoro-4-(((R)-1,1,1-trifluorobutan-2-yl)amino)benzamido)-3-(8-(1,3-dimethyl-2,4-dioxo-1,2,3,4-tetrahydropyrimidin-5-yl)quinolin-5-yl)propanoic acid]", "EC50": 1.2}
    ]},
    {"biological_target": "T1, α4β7 integrin", "experiment": "α4β7 integrin cell capture assay", "type": "cell-based", "conditions": "Table 2; capture of RPM18866 cells on MadCAM-1 extracellular domain-coated plate", "description": "as §1, §2", "units": {"EC50": "nM"}, "values": [
      {"molecule": "CC[C@@H](Nc1cc(F)c(C(=O)N[C@@H](Cc2ccc(-c3c(N4CCC4)cc(C)n(C)c3=O)c3ncccc23)C(=O)O)c(F)c1)C(F)(F)F", "note": "[Example 184]", "EC50": 0.9},
      {"molecule": "Cc1c(-c2ccc(C[C@H](NC(=O)c3c(F)cc(N[C@H](C)C(F)(F)F)cc3F)C(=O)O)c3cccnc23)c(=O)n(C)c2ccc(F)cc12", "note": "(atropisomer, axis not shown) [Example 187]", "EC50": 1.1}
    ]},
    {"biological_target": "T1, α4β7 integrin", "experiment": "α4β7 integrin cell capture assay", "type": "cell-based", "conditions": "capture of α4β7 integrin expressing RPM18866 cells on MadCAM-1 extracellular domain-coated plate", "description": "as §1, §2", "units": {"EC50": "nM"}, "values": [
      {"molecule": "Cc1cc(N2CCOC[C@@H]2C(F)(F)F)cc(F)c1C(=O)N[C@@H](Cc1ccc(-n2c(=O)c3cccnc3n(C)c2=O)c2ncccc12)C(=O)O", "note": "[Example 402]", "EC50": 0.1}
    ]}
  ]
}
